Data reported in PMC4751939, “Antileishmanial Activity of Compounds Derived from the Medicines for Malaria Venture Open Access Box against Intracellular Leishmania major Amastigotes” (The American Journal of Tropical Medicine and Hygiene, 2016).
Where two headings read alike, the source gives them in different places.

Tests used:
Assay type in all cases: cell-based
[1] = tested on: intracellular Leishmania major amastigotes (luciferase-expressing, in RAW 264.7 macrophages); experiment: Luciferase-expressing intracellular L. major amastigote-macrophage dose-response assay
Method: Macrophages were harvested from culture by removing all spent media, adding in 10 mL of fresh media, scraping adherent macrophages from the culture flask, and counting macrophages using trypan blue. The cells were resuspended at 2.0 × 10^5 cells/mL, and then dispensed in a volume of 50 μL to yield a final concentration of 10,000 macrophages/well in 384-well tissue culture–treated sterile white plates (Nunc/Thermo Fisher, Rochester, NY) using a Tecan EVO Freedom robotics system (Tecan U.S., Durham, NC). The plates were then incubated at 37°C in 5% CO2 atmosphere for 24 hours. After incubation, the media was removed from each well using the Tecan EVO Freedom robot, and 1 × 10^5 transfected L. major promastigotes were added to each well in a volume of 50 μL in DMEM/heat-inactivated fetal bovine serum (HIFBS) media and allowed to invade the macrophages. After overnight incubation, the media was removed from each well using the Tecan Freedom EVO robot, and each well was subsequently washed three times with 40 μL of fresh DMEM/HIFBS medium to remove all extracellular promastigotes. After the third wash, 69.2 μL of DMEM/HIFBS medium was added to each well using the Tecan EVO Freedom robot. Drug plates were prepared with the Tecan EVO Freedom using sterile 96-well plates containing 12 duplicate 2-fold serial dilutions of each test compound suspended in dimethyl sulfoxide (DMSO) for dose–response determinations. Of diluted test compound, 7.8 μL was added to the 69.2 μL media present in each well providing a 10-fold final dilution of compound. The final concentration range tested was 0.0005–1 μM for all assays. The plates were placed in a modular incubator chamber (Billups-Rothenburg, Del Mar, CA) that contained a humidity source, consisting of soaked gauze in a weigh boat, which was placed in the bottom of the chamber. Both valves on the system were opened and using a vent filter (Millipore, Billerica, MA), attached to the one valve, mixed gas containing 5% O2, 5% CO2, and a balance of nitrogen was allowed to pass through the system for 60 seconds. After 60 seconds, the exit valve was closed and the mixed gas was allowed to flow into the chamber for 10 seconds. At that point the remaining valve was closed. Chambers were gassed every other day. The chambers were incubated at 37°C for 96 hours. After 96 hours of incubation, 7.5 μL luciferin solution (Caliper Life Science, Hopkinton, MA) diluted to 150 μg/mL was added to each well, and the plates were incubated for 30 minutes at 37°C in the dark. Each plate was read using an Infinite M200 plate reader (Tecan Inc., Durham, NC).
The 50% inhibitory concentrations (IC50) were then generated for each dose–response test using GraphPad Prism (GraphPad Software Inc., San Diego, CA) using the nonlinear regression (sigmoidal dose–response/variable slope) equation.

HepG2 cells = experiment: MTT cytotoxicity assay; conditions: 48-hour incubation
Method: (§1) An 3-(4,5-dimethylthiazol-2-yl)-2,5-diphenyltetrazolium bromide (MTT) cytotoxicity counter assay was used to test all compounds from the MMV Malaria Box for cytotoxicity. The 384-well MTT cytotoxicity assay is a modification of the MTT method described by Ferrari and others[29] optimized for 384-well throughput. HepG2 target cells for this assay were cultured in […]. The HepG2 target cells for this assay were cultured as follows: HepG2 cells were cultured in complete Minimal Essential Medium (MEM; catalog no. 11090-099, Gibco-Invitrogen) prepared by supplementing MEM with 0.19% sodium bicarbonate (catalog no. 25080-094, Gibco-BRL), 10% HIFBS (catalog no. 16000-036, Gibco-Invitrogen, Grand Island, NY), 2 mM L-glutamine (catalog no. 25030-081, Gibco-Invitrogen), 0.1 mM MEM nonessential amino acids (catalog no. 11140-050, Gibco-Invitrogen), 0.009 mg/mL insulin (catalog no. I1882, Sigma), 1.76 mg/mL bovine serum albumin (catalog no. A1470, Sigma), 20 units/mL penicillin–streptomycin (catalog no. 15140-148, Gibco-Invitrogen), and 0.05 mg/mL gentamycin (catalog no. 15710-064, Gibco-Invitrogen). HepG2 cells cultured in complete MEM were first washed with 1× Hank's Balanced Salt Solution (catalog no. 14175-095, Invitrogen), trypsinized using a 0.25% trypsin/ethylenediaminetetraacetic acid solution (catalog no. 25200-106, Invitrogen), assessed for viability using trypan blue, and resuspended at 250,000 cells/mL. Drug plates were prepared with the Tecan EVO Freedom using sterile 96-well plates containing 12 duplicate 1.6-fold serial dilutions of each test compound suspended in DMSO. Of diluted test compound, 4.25 μL was then added to the 38.3 μL of media in each well providing a 10-fold final dilution of compound. Compounds were tested from a range of 57 to 10,000 ng/mL for all assays. The 4-azaindolo[2,1-b]quinazoline-6,12-dione was used as a toxicity control. After a 48-hour incubation period, 8 μL of a 1.5 mg/mL solution of MTT diluted in complete MEM media was added to each well. All plates were subsequently incubated in the dark for 1 hour at room temperature. After incubation, the media and drugs in each well was removed by shaking plate over sink, the plates were then left to dry in hood for 15 minutes. Next, 30 μL of isopropanol acidified by addition of hydrochloric acid at a final concentration of 0.36% was added to dissolve the formazan dye crystals created by reduction of MTT. Plates are put on a three-dimensional rotator for 15–30 minutes. Absorbance was determined in all wells using a Tecan icontrol 1.6 Infinite plate reader. The IC50 determinations were then generated for each toxicity dose–response test using GraphPad Prism (GraphPad Software Inc., San Diego, CA) using the nonlinear regression (sigmoidal dose–response/variable slope) equation.

MTT cytotoxicity assay = conditions: human, HepG2 cells, 48-hour incubation
Method: as §1

[2] = Leishmania major, RAW264.7, transgenic luciferase expressing intracellular L. major amastigote-macrophage parasites, 96 hours, read-out: Geometric mean L. major IC50 ± SD (n)
[3] = Leishmania major, RAW264.7, MMV Malaria Box L. major hits, intracellular amastigotes, 96 hours, read-out: IC50
[4] = Leishmania major, RAW264.7, rounded values quoted in the discussion, read-out: L. major amastigote-macrophage IC50

| Compound | IC50 [1, 3] [nM] | IC50 at 48 h (MTT cytotoxicity assay) [nM] | further results |
| --- | --- | --- | --- |
| CCCCCCCCCCCCCCCCOP(=O)([O-])OCC[N+](C)(C)C [Miltefosine, reference compound] |  |  | IC50 [1, 2]: 550 ± 30 nM |
| 2-{2-[(4-nitrophenyl)methylidene]hydrazin-1-yl}-1H-1,3-benzodiazole [MMV666023] |  |  | IC50 ([1]; MMV Malaria Box L. major hits, intracellular amastigotes, 96 hours, read-out: IC50): 91.7 nM; IC50 ([1]; rounded values quoted in the discussion, read-out: L. major amastigote-macrophage IC50): 92 nM; IC50 (HepG2 cells): 1300 nM |
| CCCCCn1c(=N)n(CC(O)COc2cccc(C)c2)c2ccccc21 (stereo not drawn) [MMV000444, 1-(2-imino-3-pentylbenzimidazol-1-yl)-3-(3-methylphenoxy)propan-2-ol] | 267 | 4130 |  |
| NC[C@@H]1O[C@H](O[C@H]2[C@@H](O)[C@H](O[C@@H]3[C@@H](O)[C@H](N)C[C@H](N)[C@H]3O[C@H]3O[C@H](CO)[C@@H](O)[C@H](O)[C@H]3N)O[C@@H]2CO)[C@H](N)[C@@H](O)[C@@H]1O [Paromomycin, reference compound] |  |  | IC50 [1, 2]: 780 ± 310 nM |
| C[n+]1c2ccccc2nc2ccc(NCCO)cc21 [MMV396693, 2-[(10-methylphenazin-10-ium-2-yl)amino]ethanol] |  | 5660 | IC50 ([1]; Leishmania major, RAW264.7, 96 h): 53.4 nM |
| COc1ccc(CCN2CCC(CN(C)Cc3cnn(-c4ccccc4)c3)CC2)cc1 [MMV666069] | 366 | 5820 |  |
| c1ccc(CNc2nc(Nc3ccccc3)nc3ccccc23)cc1 [MMV006169, N-phenyl-N′-(phenylmethyl)quinazoline-2,4-diamine] | 467 | 5660 |  |
| Cc1c(C)n(Cc2ccc(F)cc2)c2ccc(C(=O)NCc3ccco3)cc12 [MMV008149, 1-[(4-fluorophenyl)methyl]-N-(furan-2-ylmethyl)-2,3-dimethylindole-5-carboxamide] | 229 | 3260 |  |
| N=C(N)c1ccc(OCCCCCOc2ccc(C(=N)N)cc2)cc1 [Pentamidine, reference compound] |  |  | IC50 [1, 2]: 3420 ± 1700 nM |
| Cc1ccccc1OCCSc1nc2ccc(NC(=O)c3cccs3)cc2s1 [MMV007396, N-[2-[2-(2-methylphenoxy)ethylsulfanyl]-1,3-benzothiazol-6-yl]thiophene-2-carboxamide] | 120 | 3500 |  |
| CCCCN(CCCC)S(=O)(=O)c1ccc(NC(=O)c2ccco2)cc1 [MMV007881, N-[4-(dibutylsulfamoyl)phenyl]furan-2-carboxamide] | 418 | 5600 |  |
| O=C(O)[C@@H]1[O][Sb](=[O])([O][Sb]2(=[O])[O][C@H]([C@H](O)CO)[C@H](O)[C@H](C(=O)O)[O]2)[O][C@H]([C@H](O)CO)[C@@H]1O.[Na+].[Na+].[Na+] (stereo partly drawn) [Pentostam, reference compound] |  |  | IC50 ([1]; transgenic luciferase expressing intracellular L. major amastigote-macrophage parasites, 96 hours, read-out: Geometric mean L. major IC50 ± SD (n)): 9080 ± 350 nM |
| CC(=O)N1CCN(c2ccc(OCC3COC(Cn4ccnc4)(c4ccc(Cl)cc4Cl)O3)cc2)CC1 (stereo not drawn) [Ketoconazole, reference compound] |  |  | IC50 [1, 2]: 19800 ± 3900 nM |
| O=[N+]([O-])c1ccc(C=NNc2nc3ccccc3[nH]2)cc1 [MMV666607, 2-{2-[(4-nitrophenyl)methylidene]hydrazin-1-yl}-1H-1,3-benzodiazole] | 134 | > 6060 | IC50 [1, 4]: 134 nM |
| O=C(NC(c1ccccc1)c1ccc2cccnc2c1O)c1ccccc1 (stereo not drawn) [MMV666080, N-[(8-hydroxyquinolin-7-yl)-phenylmethyl]benzamide] | 14.9 | > 6060 | IC50 [1, 4]: 15 nM |
| CCOc1ccc(N2C(N)=NC(N)=NC2(C)C)cc1 [MMV667486, 1-(4-ethoxyphenyl)-6,6-dimethyl-1,3,5-triazine-2,4-diamine] | 193 | > 6060 |  |
| Cc1ccc(Cn2c(N3CCC(C(=O)NCc4cccs4)CC3)nc3ccccc32)cc1 [MMV007564, 1-[1-[(4-methylphenyl)methyl]benzimidazol-2-yl]-N-(thiophen-2-ylmethyl)piperidine-4-carboxamide] | 60.8 | > 6060 | IC50 [1, 4]: 61 nM |
| C[C@@H]1[C@H](O)[C@@H](C)/C=C/C=C/C=C/C=C/C=C/C=C/C=C/[C@H](O[C@@H]2O[C@H](C)[C@@H](O)[C@H](N)[C@@H]2O)C[C@@H]2O[C@](O)(C[C@@H](O)C[C@@H](O)[C@H](O)CC[C@@H](O)C[C@@H](O)CC(=O)O[C@H]1C)C[C@H](O)[C@H]2C(=O)O [Amphotericin B, reference compound] |  |  | IC50 [1, 2]: 27 ± 10 nM |
| COc1ccc(CCNC(=O)c2cc(S(=O)(=O)N3CC(C)CC(C)C3)ccc2Sc2ccc(F)cc2)cc1OC (stereo not drawn) [MMV007557, N-[2-(3,4-dimethoxyphenyl)ethyl]-5-(3,5-dimethylpiperidin-1-yl)sulfonyl-2-(4-fluorophenyl)sulfanylbenzamide] | 180 | > 6060 |  |
| CCOC(=O)c1cn(CC)c2cc(N3CCCCC3)c(F)cc2c1=O [MMV665827, ethyl 1-ethyl-6-fluoro-4-oxo-7-piperidin-1-ylquinoline-3-carboxylate] | 478 | 1720 |  |
| CCN(CC)CCCCCCNc1cc(OC)cc2c(C)ccnc12 [Sitamaquine, reference compound] |  |  | IC50 [1, 2]: 10000 ± 370 nM |
